Assays:
[1] = biological target: T1, TDO2 (SW48 cells, high TDO expressing cells) (Homo sapiens, UniProt P48775); experiment: NFK GreenScreen cell assay, inhibition of TDO in SW48 cells; type: cell-based; conditions: read-out: TDO2 Cell Fluor EC50
T1 construct: SW48 cells (high TDO expressing cells); endogenous in cells; host or cells: SW48 cells
From the text: (§1) Cells are counted on a Vi-Cell (Beckman Coulter). […] The final DMSO concentration is 0.5%.

[2] = biological target: T2, IDO1 (A172+IFNg cells, high IDO expressing cells) (Homo sapiens, UniProt P14902); experiment: NFK GreenScreen cell assay, inhibition of IDO in A172+IFNg cells; type: cell-based; conditions: read-out: IDO cell Fluor EC50
T2 construct: A172+IFNg cells (high IDO expressing cells); endogenous in cells; host or cells: A172 cells induced with 100 ng/ml IFNγ
T2 sequence (P14902 whole entry): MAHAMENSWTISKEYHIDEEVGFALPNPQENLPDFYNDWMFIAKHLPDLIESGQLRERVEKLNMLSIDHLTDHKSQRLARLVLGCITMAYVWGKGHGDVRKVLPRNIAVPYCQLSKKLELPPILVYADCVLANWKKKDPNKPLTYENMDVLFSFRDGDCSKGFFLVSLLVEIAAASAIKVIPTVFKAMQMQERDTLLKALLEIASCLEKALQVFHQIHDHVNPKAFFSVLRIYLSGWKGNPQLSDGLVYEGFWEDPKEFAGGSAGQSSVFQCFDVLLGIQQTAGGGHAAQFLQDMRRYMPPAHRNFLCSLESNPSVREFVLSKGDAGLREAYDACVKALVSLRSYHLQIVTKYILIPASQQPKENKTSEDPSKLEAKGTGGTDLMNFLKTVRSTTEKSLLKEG
From the text: as §1

T1 sequence (P48775 whole entry): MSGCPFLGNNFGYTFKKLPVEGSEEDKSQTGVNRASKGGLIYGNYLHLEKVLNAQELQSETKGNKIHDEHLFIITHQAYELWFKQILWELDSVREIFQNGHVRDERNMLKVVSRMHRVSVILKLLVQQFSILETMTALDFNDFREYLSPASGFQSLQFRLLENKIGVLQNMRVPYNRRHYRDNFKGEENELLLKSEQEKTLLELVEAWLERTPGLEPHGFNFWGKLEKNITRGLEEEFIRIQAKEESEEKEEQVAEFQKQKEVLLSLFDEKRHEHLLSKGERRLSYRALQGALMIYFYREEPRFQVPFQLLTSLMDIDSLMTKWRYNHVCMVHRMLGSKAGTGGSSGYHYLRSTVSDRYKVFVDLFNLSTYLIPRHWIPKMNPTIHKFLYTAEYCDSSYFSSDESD

## CC(C)(C)OC(=O)N[C@H]1CC[C@@]2(CC1)C[C@@H]([C@@H]1c3ccccc3-c3cncn31)[C@H]2O (single isomer, unassigned) [Example 24d]
[1]
  EC50: 2500 nM
[2]
  EC50: 1100 nM

## CC(C)(C)OC(=O)N[C@H]1CC[C@@]2(CC1)C[C@H]([C@H]1c3ccccc3-c3cncn31)[C@@H]2O (single isomer, unassigned) [Example 24e]
[1]
  EC50: 16000 nM
[2]
  EC50: 10000 nM

## CC(C)(C)OC(=O)N[C@H]1CC[C@]2(CC1)C[C@@H]([C@@H]1c3ccccc3-c3cncn31)[C@@H]2O (single isomer, unassigned) [Example 24h]
[1]
  EC50: 16000 nM
[2]
  EC50: 5400 nM

## CC(C)(C)OC(=O)N[C@H]1CC[C@]2(CC1)C[C@H]([C@H]1c3ccccc3-c3cncn31)[C@H]2O (single isomer, unassigned) [Example 24i]
[1]
  EC50: 260 nM
[2]
  EC50: 960 nM

## CC(C)(C)OC(=O)N[C@H]1CC[C@@]2(CC1)C[C@@H]([C@H]1c3ccccc3-c3cncn31)[C@@H]2O (single isomer, unassigned) [Example 24j]
[1]
  EC50: 140 nM
[2]
  EC50: 640 nM

## CC(C)(C)OC(=O)N[C@H]1CC[C@@]2(CC1)C[C@@H]([C@H]1c3ccccc3-c3cncn31)[C@H]2O (single isomer, unassigned) [Example 24l]
[1]
  EC50: 8600 nM
[2]
  EC50: 1900 nM

## CC(C)(C)OC(=O)N[C@H]1CC[C@]2(CC1)C[C@H]([C@H]1c3ccccc3-c3cncn31)[C@@H]2O (single isomer, unassigned) [Example 24n]
[1]
  EC50: 1100 nM
[2]
  EC50: 240 nM

## CC(C)(C)OC(=O)N[C@H]1CC[C@@]2(CC1)C[C@H]([C@@H]1c3ccccc3-c3cncn31)[C@@H]2O (single isomer, unassigned) [Example 24p]
[1]
  EC50: 3300 nM
[2]
  EC50: 920 nM

## O=C([C@@H]1CC1(F)F)N1CCC2(CC[C@@H]([C@H]3c4ccccc4-c4cncn43)[C@H]2O)CC1 (single isomer, unassigned) [Example 25a]
[1]
  EC50: 81 nM
[2]
  EC50: 34 nM

## O=C([C@H]1CC1(F)F)N1CCC2(CC[C@@H]([C@H]3c4ccccc4-c4cncn43)[C@H]2O)CC1 (single isomer, unassigned) [Example 25b]
[1]
  EC50: 150 nM
[2]
  EC50: 160 nM

## CS(=O)(=O)N1CC2(CCC(C3c4ccccc4-c4cncn43)C2O)C1 (single isomer, unassigned) [compound 16, 6-(5H imidazo[5,1-a]isoindol-5-yl)-2-(methylsulfonyl)-2-azaspiro[3.4]octan-5-ol]
[1]
  EC50: 95 nM
[2]
  EC50: 220 nM

## O=S(=O)(c1c[nH]cn1)N1CCC2(CCC(C3c4ccccc4-c4cncn43)C2O)CC1 (single isomer, unassigned) [compound 59, 8-((1H-imidazol-4-yl)sulfonyl)-2-(5H-imidazo[5,1-a]isoindol-5-yl)-8-azaspiro[4.5]decan-1-ol]
[1]
  EC50: 2000 nM
[2]
  EC50: 2800 nM

## O=C(OCC(F)F)N1CCC2(CCC(C3c4ccccc4-c4cncn43)C2O)CC1 (single isomer, unassigned) [compound 60, 2,2-difluoroethyl 1-hydroxy-2-(5H-imidazo[5,1-a]isoindol-5-yl)-8-azaspiro[4.5]decane-8-carboxylate]
[1]
  EC50: 56 nM
[2]
  EC50: 40 nM

## CS(=O)(=O)N1CC2CCC(C1)C21CC(C2c3ccccc3-c3cncn32)C1O (single isomer, unassigned) [compound 70, 3′(5H-imidazo[5,1-a]isoindol-5-yl)-3-(methylsulfonyl)-3-azaspiro[bicyclo[3.2.1]octane-8,1′-cyclobutan]-2′-ol]
[1]
  EC50: 140 nM
[2]
  EC50: 150 nM

## O=S(=O)(C1COC1)N1CCC2(CC1)C[C@H](C1c3ccccc3-c3cncn31)[C@@H]2O (stereo in doubt) [Example 23b, (2R,3S)-2-((5S)5H-imidazo[1,5-b]isoindol-5-yl)-7-(oxetan-3-ylsulfonyl)-7-azaspiro[3.5]nonan-3-ol]
[1]
  EC50: 3200 nM
[2]
  EC50: 2500 nM

## CC(C)(C)OC(=O)N1[C@@H]2CC[C@H]1C[C@]1(C[C@H]([C@@H]3c4ccccc4-c4cncn43)[C@@H]1O)C2 [Example 12a, tert-butyl (1R,2′S,3r,3′R,5S)-2′-hydroxy-3′-((R)-5H-imidazo[5,1-a]isoindol-5-yl)-8-azaspiro[bicyclo[3.2.]octane-3,1′-cyclobutane]-8-carboxylate]
[1]
  EC50: 1200 nM
[2]
  EC50: 920 nM

## N#CCS(=O)(=O)N1CCC2(CC1)CC(C1c3ccccc3-c3cncn31)C2O (stereo not drawn) [Example 21a, 2-[[3-hydroxy-2-(5H-imidazo[,5-b]isoindol-5-yl)-7-azaspiro[3.5]nonan-7-yl]sulfonyl]acetonitrile]
[1]
  EC50: 180 nM
[2]
  EC50: 150 nM

## N#CCS(=O)(=O)N1CCC2(CC1)C[C@@H]([C@H]1c3ccccc3-c3cncn31)[C@H]2O [Example 21b, (2S,3R)-2-[[3-hydroxy-2-((5S)-5H-imidazo[1,5-b]isoindol-5-yl)-7-azaspiro[3.5]nonan-7-yl]sulfonyl]acetonitrile]
[1]
  EC50: 100 nM
[2]
  EC50: 75 nM

## N#CCS(=O)(=O)N1CCC2(CC1)C[C@H]([C@@H]1c3ccccc3-c3cncn31)[C@@H]2O [Example 21c, (2R,3S)-2-[[3-hydroxy-2-((5R)-5H-imidazo[1,5-b]isoindol-5-yl)-7-azaspiro[3.5]nonan-7-yl]sulfonyl]acetonitrile]
[1]
  EC50: 5900 nM
[2]
  EC50: 4800 nM

## CC(C)(C)OC(=O)N1CC2CCC(C1)C21C[C@@H]([C@@H]2c3ccccc3-c3cncn32)[C@H]1O (stereo partly drawn) [Example 22d, tert-butyl (2′R,3′S)-2′-hydroxy-3′-((R)-5H-imidazo[5,1-a]isoindol-5-yl)-3-azaspiro[bicyclo[3.2.1]octane-8,1′-cyclobutane]-3-carboxylate]
[1]
  EC50: 440 nM
[2]
  EC50: 1400 nM

## CC(C)(C)OC(=O)N1CC2CCC(C1)C21C[C@@H]([C@@H]2c3ccccc3-c3cncn32)[C@@H]1O (stereo partly drawn) [Example 22e, tert-butyl (2′S,3′S)-2′-hydroxy-3′-((R)-5H-imidazo[5,1-a]isoindol-5-yl)-3-azaspiro[bicyclo[3.2.1]octane-8,1′-cyclobutane]-3-carboxylate]
[1]
  EC50: 17000 nM
[2]
  EC50: 8500 nM

## CC(C)(C)OC(=O)N1CC2CCC(C1)C21C[C@H]([C@H]2c3ccccc3-c3cncn32)[C@H]1O (stereo partly drawn) [Example 22f, tert-butyl (2′R,3′R)-2′-hydroxy-3′-((S)-5H-imidazo[5,1-a]isoindol-5-yl)-3-azaspiro[bicyclo[3.2.1]octane-8,1′-cyclobutane]-3-carboxylate]
[1]
  EC50: 1400 nM
[2]
  EC50: 92 nM

## CC(C)(C)OC(=O)N1CC2CCC(C1)C21C[C@H]([C@@H]2c3ccccc3-c3cncn32)[C@H]1O (stereo partly drawn) [Example 22g, tert-butyl (2′R,3′R)-2′-hydroxy-3′-((R)-5H-imidazo[5,1-a]isoindol-5-yl)-3-azaspiro[bicyclo[3.2.1]octane-8,1-cyclobutane]-3-carboxylate]
[1]
  EC50: 160 nM
[2]
  EC50: 41 nM

## CC(C)(C)OC(=O)N1CC2CCC(C1)C21C[C@@H]([C@H]2c3ccccc3-c3cncn32)[C@@H]1O (stereo partly drawn) [Example 22h, tert-butyl (2′S,3′S)-2′-hydroxy-3′-((S)-5H-imidazo[5,1-a]isoindol-5-yl)-3-azaspiro[bicyclo[3.2.1]octane-8,1′-cyclobutane]-3-carboxylate]
[1]
  EC50: 4000 nM
[2]
  EC50: 2800 nM

## O=S(=O)(C1COC1)N1CCC2(CC1)CC(C1c3ccccc3-c3cncn31)C2O (stereo not drawn) [Example 23a, 2-(5H-imidazo[1,5-b]isoindol-5-yl)-7-(oxetan-3-ylsulfonyl)-7-azaspiro[3.5]nonan-3-ol]
[1]
  EC50: 330 nM
[2]
  EC50: 150 nM

## O=S(=O)(C1COC1)N1CCC2(CC1)C[C@@H]([C@H]1c3ccccc3-c3cncn31)[C@H]2O [Example 23c, (2S,3R)-2-[(5S)-5H-imidazo[1,5-b]isoindol-5-yl]-7-(oxetan-3-ylsulfonyl)-7-azaspiro[3.5]nonan-3-ol]
[1]
  EC50: 90 nM
[2]
  EC50: 50 nM

## CC(C)(C)OC(=O)N[C@H]1CC[C@]2(CC1)C[C@H]([C@H]1c3ccccc3-c3cncn31)[C@@H]2O [Example 24g, tert-butyl ((1S,2R,4r,7S)-1-hydroxy-2-((S)-5H-imidazo[5,1-a]isoindol-5-yl)spiro[3.5]nonan-7-yl)carbamate]
[1]
  EC50: 1100 nM
[2]
  EC50: 1800 nM

## CC(C)(C)OC(=O)N[C@H]1CC[C@@]2(CC1)C[C@H](C1c3ccccc3-c3cncn31)[C@H]2O (stereo partly drawn) [Example 24k, tert-butyl ((1S,2S,4s,7R)-1-hydroxy-2-((S)-5H-imidazo[5,1-a]isoindol-5-yl)spiro[3.5]nonan-7-yl)carbamate]
[1]
  EC50: 14000 nM
[2]
  EC50: 5000 nM

## CS(=O)(=O)N1CC2(CC(C3c4ccccc4-c4cncn43)C2O)C1 (stereo not drawn) [compound 5, 6-(5H-imidazo[1,5-b]isoindol-5-yl)-2-methylsulfonyl-2-azaspiro[3.3]heptan-7-ol]
[1]
  EC50: 230 nM
[2]
  EC50: 460 nM

## Cn1cc(S(=O)(=O)N2CCC3(CC2)CC(C2c4ccccc4-c4cncn42)C3O)cn1 (stereo not drawn) [compound 26, 2-(5H-imidazo[1,5-b]isoindol-5-yl)-7-(1-methylpyrazol-4-yl)sulfonyl-7-azaspiro[3.5]nonan-3-ol]
[1]
  EC50: 220 nM
[2]
  EC50: 110 nM

## Cc1nn(C)c(C)c1S(=O)(=O)N1CCC2(CC1)CC(C1c3ccccc3-c3cncn31)C2O (stereo not drawn) [compound 27, 2-(5H-imidazo[1,5-b]isoindol-5-yl)-7-(1,3,5-trimethylpyrazol-4-yl)sulfonyl-7-azaspiro[3.5]nonan-3-ol]
[1]
  EC50: 140 nM
[2]
  EC50: 30 nM

## CC(C)S(=O)(=O)N1CCC2(CC1)C[C@@H]([C@H]1c3ccccc3-c3cncn31)[C@H]2O [compound 29, 2-(5H-imidazo[1,5-b]isoindol-5-yl)-7-isopropylsulfonyl-7-azaspiro[3.5]nonan-3-ol]
[1]
  EC50: 240 nM
[2]
  EC50: 59 nM

## Cc1nc(S(=O)(=O)N2CCC3(CC2)C[C@@H]([C@H]2c4ccccc4-c4cncn42)[C@H]3O)cn1C [compound 30]
[1]
  EC50: 490 nM
[2]
  EC50: 320 nM
